The target of the test is Recombinant KAT6A/MOZ (488-778) protein (Homo sapiens (Human), UniProt Q92794). The test is described as follows: KAT6A AlphaLISA Inhibition Screening Assay. The test is classed as biochemical. The note with it: for inhibition at 1 µM: read-out: Average Kat6A % inhibition @ 1 μM; for inhibition at 1 µM / Average Kat6A % inhibition @ 1 μM: 1 μM test compound; for inhibition at 10 µM: read-out: Average Kat6A % inhibition @ 10 μM; for inhibition at 10 µM / Average Kat6A % inhibition @ 10 μM: 10 μM test compound. The essentials: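 25 nM KAT6A (488-778) pre-incubated 60 or 10 min with compound (10-point, 3-fold from 10 μM), then 400 nM acetyl-CoA and 200 nM biotin-H3(1-21) peptide added for 120 min at RT in pH 8.0 Tris buffer with 330 nM TSA. Acetylation read by AlphaLISA (anti-acetyl-lysine acceptor/streptavidin donor beads); % inhibition vs vehicle.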
In general terms: Alpha assays give light when donor and acceptor beads are brought close together.

Recombinant KAT6A/MOZ (488-778) protein, sequence (Q92794 488-778): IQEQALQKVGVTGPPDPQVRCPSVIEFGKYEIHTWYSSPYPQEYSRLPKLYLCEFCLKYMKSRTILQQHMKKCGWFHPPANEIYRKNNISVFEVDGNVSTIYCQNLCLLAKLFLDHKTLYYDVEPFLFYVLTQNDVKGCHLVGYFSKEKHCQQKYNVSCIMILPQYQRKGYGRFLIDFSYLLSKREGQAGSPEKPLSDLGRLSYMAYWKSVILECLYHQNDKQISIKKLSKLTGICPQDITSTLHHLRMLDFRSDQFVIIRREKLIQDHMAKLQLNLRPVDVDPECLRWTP

For the molecule `CCc1ccc(OC)c(S(=O)(=O)Nc2noc3cc(Cn4cc(CNC(=O)C#CCO)cn4)cc(OC)c23)c1` [Syn. Ex. 49, N-((1-((3-((5-ethyl-2-methoxyphenyl)sulfonamido)-4-methoxybenzo[d]isoxazol-6-yl)methyl)-1H-pyrazol-4-yl)methyl)-4-hydroxybut-2-ynamide], the inhibition – broadly, the change of the read-out against control, counted positive when it falls – at 1 µM was 94% and the inhibition at 10 µM was found to be 100%.
With `CCc1cc(S(=O)(=O)Nc2noc3cc(Cn4cc(CNC(=O)OC)cn4)cc(OC)c23)c(OC)cn1` [Syn. Ex. 120, methyl ((1-((3-((2-ethyl-5-methoxypyridine)-4-sulfonamido)-4-methoxybenzo[d]isoxazol-6-yl)methyl)-1H-pyrazol-4-yl)methyl)carbamate], the “Average Kat6A % inhibition @ 1 μM” value was 100% and the “Average Kat6A % inhibition @ 10 μM” value is recorded as 100%.
For the molecule `CCOc1cc(C)ccc1S(=O)(=O)Nc1noc2cc(Cn3cc(CNC(=O)OC)cn3)cc(OC)c12` [Syn. Ex. 136, methyl ((1-((3-((2-ethoxy-4-methylphenyl)sulfonamido)-4-methoxybenzo[d]isoxazol-6-yl)methyl)-1H-pyrazol-4-yl)methyl)carbamate], the inhibition at 1 µM was 99% and the inhibition at 10 µM is 99%.
As to `CCc1ccc(OC)c(S(=O)(=O)Nc2noc3cc(Cn4cc(CNC(=O)OCCN)cn4)cc(OC)c23)c1` [Syn. Ex. 32, 2-aminoethyl ((1-((3-((5-ethyl-2-methoxyphenyl)sulfonamido)-4-methoxybenzo[d]isoxazol-6-yl)methyl)-1H-pyrazol-4-yl)methyl) carbamate], the “Average Kat6A % inhibition @ 1 μM” value is recorded as 75% and the “Average Kat6A % inhibition @ 10 μM” value turned out to be 97%.
For `CCc1ccc(OCCN2CCOC2=O)c(S(=O)(=O)Nc2noc3cc(Cn4cc(CNC(=O)OC)cn4)cc(OC)c23)c1` [Syn. Ex. 77, methyl ((1-((3-((5-ethyl-2-(2-(2-oxooxazolidin-3-yl)ethoxy)phenyl)sulfonamido)-4-methoxybenzo[d]isoxazol-6-yl)methyl)-1H-pyrazol-4-yl)methyl)carbamate], the inhibition at 1 µM was 96% and the inhibition at 10 µM was 98%.
The corresponding values for `C=C(F)C(=O)N(C)Cc1cnn(Cc2cc(OC)c3c(NS(=O)(=O)c4cc(CC)ccc4OC)noc3c2)c1` [Syn. Ex. 39, N-((1-((3-((5-ethyl-2-methoxyphenyl)sulfonamido)-4-methoxybenzo[d]isoxazol-6-yl)methyl)-1H-pyrazol-4-yl)methyl)-2-fluoro-N-methylacrylamide] are 92% and 100%.
Take `COC(=O)NCc1cnn(Cc2cc3onc(NS(=O)(=O)c4ccccc4OC)c3c3c2CCO3)c1` [Syn. Ex. 134, methyl ((1-((8-((2-methoxyphenyl)sulfonamido)-2,3-dihydrobenzofuro[7,6-d]isoxazol-4-yl)methyl)-1H-pyrazol-4-yl)methyl)carbamate]: the inhibition at 1 µM amounted to 97% and the inhibition at 10 µM was found to be 101%.
With `C#Cc1ccc(OC)c(S(=O)(=O)Nc2noc3cc(Cn4cc(CNC(=O)OC)cn4)cc(OC)c23)c1` [Syn. Ex. 112, methyl ((1-((3-((5-ethynyl-2-methoxyphenyl)sulfonamido)-4-methoxybenzo[d]isoxazol-6-yl)methyl)-1H-pyrazol-4-yl)methyl)carbamate], the inhibition at 1 µM worked out at 70% and the inhibition at 10 µM was 98%.
